PubChem BioAssay (NCI)
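In this assay, cells in 96-well plates receive the compound at five concentrations for 48 hours. Endpoints are linearly interpolated between the surrounding concentrations. GI50 = concentration required for 50% inhibition of growth. TGI: concentration producing complete growth inhibition.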

Assays:
Assay in all cases: inhibition of tumour cell growth, NCI panel, 48 h
TK-10 renal = test system: TK-10 renal
COLO 205 colon = test system: COLO 205 colon
EKVX NSCLC = test system: EKVX NSCLC
SK-MEL-5 melanoma = test system: SK-MEL-5 melanoma
CCRF-CEM leukemia = test system: CCRF-CEM leukemia
OVCAR-8 ovarian = test system: OVCAR-8 ovarian
MALME-3M melanoma = test system: MALME-3M melanoma
NCI-H522 lung = test system: NCI-H522 lung
NCI-H226 lung = test system: NCI-H226 lung
MDA-MB-435 = test system: MDA-MB-435

## OCC(O)C(O)c1nn(-c2ccccc2)c2nc3cc(Cl)c(Cl)cc3nc12 (configuration not stated)
TK-10 renal
  TGI: 48.4 µM
COLO 205 colon
  TGI: 86.4 µM
EKVX NSCLC
  TGI: > 100 µM
SK-MEL-5 melanoma
  TGI: > 100 µM
CCRF-CEM leukemia
  TGI: > 100 µM
OVCAR-8 ovarian
  TGI: 69.2 µM
MALME-3M melanoma
  TGI: 44.1 µM
NCI-H522 lung
  TGI: > 100 µM
NCI-H226 lung
  TGI: 73.6 µM

## C(=N\Nc1nnc2c(n1)[nH]c1ccccc12)/c1cccnc1
TK-10 renal
  TGI: > 100 µM
MDA-MB-435
  TGI: > 100 µM
COLO 205 colon
  TGI: > 100 µM
EKVX NSCLC
  TGI: > 100 µM
SK-MEL-5 melanoma
  TGI: > 100 µM
OVCAR-8 ovarian
  TGI: > 100 µM
MALME-3M melanoma
  TGI: > 100 µM
NCI-H522 lung
  TGI: > 100 µM
NCI-H226 lung
  TGI: > 100 µM

## COc1cc([C@@H]2c3cc4c(cc3[C@@H](NC(=O)c3ccc(N)cc3)C3COC(=O)[C@@H]32)OCO4)cc(OC)c1O (some centres not stated)
TK-10 renal
  TGI: 29.7 µM
COLO 205 colon
  TGI: 28.4 µM
EKVX NSCLC
  TGI: 23.7 µM
SK-MEL-5 melanoma
  TGI: 21.6 µM
CCRF-CEM leukemia
  TGI: 13.1 µM
OVCAR-8 ovarian
  TGI: 16.3 µM
MALME-3M melanoma
  TGI: 19.8 µM
NCI-H522 lung
  TGI: 9.23 µM
NCI-H226 lung
  TGI: 6.91 µM

## O=[N+]([O-])c1cccc([N+](=O)[O-])c1S(=O)(=O)c1ccccc1
TK-10 renal
  TGI: 30.2 µM
MDA-MB-435
  TGI: 14.6 µM
COLO 205 colon
  TGI: 19.4 µM
EKVX NSCLC
  TGI: 42.8 µM
SK-MEL-5 melanoma
  TGI: 28.3 µM
OVCAR-8 ovarian
  TGI: 6.21 µM
MALME-3M melanoma
  TGI: 6.19 µM
NCI-H226 lung
  TGI: 36.8 µM

## CC#C[C@@]1(O)CCCC[C@@H]1O
TK-10 renal
  TGI: > 100 µM
COLO 205 colon
  TGI: > 100 µM
EKVX NSCLC
  TGI: > 100 µM
SK-MEL-5 melanoma
  TGI: > 100 µM
CCRF-CEM leukemia
  TGI: > 100 µM
OVCAR-8 ovarian
  TGI: > 100 µM
MALME-3M melanoma
  TGI: > 100 µM
NCI-H522 lung
  TGI: > 100 µM
NCI-H226 lung
  TGI: > 100 µM

## COc1ccc(SC2c3cc(OC)c(OC)cc3Oc3nc(N)c(C#N)c(N)c32)cc1 (configuration not stated)
TK-10 renal
  GI50: 1.63 µM
  TGI: 3.01 µM
MDA-MB-435
  GI50: 1.5 µM
  TGI: 2.92 µM
COLO 205 colon
  GI50: 1.29 µM
  TGI: 2.65 µM
EKVX NSCLC
  GI50: 1.74 µM
  TGI: 3.34 µM
SK-MEL-5 melanoma
  GI50: 1.5 µM
  TGI: 2.82 µM
OVCAR-8 ovarian
  GI50: 1.69 µM
  TGI: 3.18 µM
MALME-3M melanoma
  GI50: 1.46 µM
  TGI: 2.89 µM
NCI-H522 lung
  GI50: 1.37 µM
  TGI: 2.77 µM
NCI-H226 lung
  GI50: 1.37 µM
  TGI: 2.68 µM

## c1ccc2c(CNCCCCCCNCc3cccc4ccccc34)cccc2c1
TK-10 renal
  TGI: 25.2 µM
COLO 205 colon
  TGI: 3.12 µM
EKVX NSCLC
  TGI: 26.4 µM
SK-MEL-5 melanoma
  TGI: 19.9 µM
CCRF-CEM leukemia
  TGI: 9.62 µM
OVCAR-8 ovarian
  TGI: 29 µM
MALME-3M melanoma
  TGI: 3.42 µM
NCI-H522 lung
  TGI: 9.78 µM
NCI-H226 lung
  TGI: 31.6 µM

## COc1ccc2cccc(C(=O)c3ccc(C)c4c3CCC4)c2c1
TK-10 renal
  TGI: > 100 µM
COLO 205 colon
  TGI: 68.3 µM
EKVX NSCLC
  TGI: > 100 µM
SK-MEL-5 melanoma
  TGI: 36.8 µM
CCRF-CEM leukemia
  TGI: > 100 µM
OVCAR-8 ovarian
  TGI: > 100 µM
MALME-3M melanoma
  TGI: 72.8 µM
NCI-H522 lung
  TGI: 64.1 µM
NCI-H226 lung
  TGI: > 100 µM

## Cc1cnc[nH]c1=O
TK-10 renal
  TGI: > 100 µM
COLO 205 colon
  TGI: > 100 µM
EKVX NSCLC
  TGI: > 100 µM
SK-MEL-5 melanoma
  TGI: > 100 µM
CCRF-CEM leukemia
  TGI: > 100 µM
OVCAR-8 ovarian
  TGI: > 100 µM
MALME-3M melanoma
  TGI: > 100 µM
NCI-H522 lung
  TGI: > 100 µM
NCI-H226 lung
  TGI: > 100 µM

## S=c1nc(-c2ccccc2)oc(=NC2CCCCC2)n1C1CCCCC1
TK-10 renal
  GI50: 4.31 µM
  TGI: 8.57 µM
MDA-MB-435
  GI50: 3.36 µM
  TGI: 8.82 µM
COLO 205 colon
  GI50: 2.11 µM
  TGI: 4.22 µM
EKVX NSCLC
  GI50: 2.14 µM
  TGI: 12 µM
SK-MEL-5 melanoma
  GI50: 2.62 µM
  TGI: 9.87 µM
CCRF-CEM leukemia
  GI50: 1.75 µM
  TGI: 8.87 µM
OVCAR-8 ovarian
  GI50: 3.22 µM
  TGI: 18.5 µM
NCI-H522 lung
  GI50: 4.8 µM
  TGI: 18.3 µM
NCI-H226 lung
  GI50: 17.5 µM
  TGI: 37.9 µM
